Structures are written as SMILES.

Test [1] relates to ovarian cancer cells. Description: Apoptosis of ovarian cancer cells (other experiments). It is filed as cell-based.
For test [2], the system named is H1299 cells. The experiment in a line: Transcriptome sequencing with KEGG pathway enrichment of down-regulated genes. It is filed as cell-based, human. The settings on record: 1 mg/mL ATCA, 48 h, FIG. 7. The procedure: 1 mg/mL ATCA was added to the culture medium of a T75 cell culture flask filled with three million of H1299 cells as a treatment group, and an equal volume of PBS was added as a control group. After ATCA treatment for 48 h, the cultured supernatant was discarded, and the cells were placed on ice, washed twice with pre-cooled PBS. The PBS was discarded, 5 mL of pre-cooled Trizol (total RNA extraction reagent) was added, mixed by shaking thoroughly. […]

Test [3] concerns polyribosomes. Description: Polysome profiling (cell translation initiation efficiency). It is filed as cell-based. The settings on record: 1 mg/mL, FIG. 5. The procedure: Polysome profiling: cells were plated in a 75 T flask with 2 million cells per flask and allowed to adhere for 24 h, and the ACTA was added to the experimental group to make a concentration of the working solution at 1 mg/mL. The control group was replaced with a new medium. Samples were collected after 24 h and 48 h of ATCA treatment. The medium was aspirated, the samples were washed twice with PBS, and 2 mL of Lysis Buffer (RB Buffer, 1% Ttiton X-100, and 10 μg/μL cycloheximide) was added to allow lysis for 30 min on ice, and a resulting lysate was pipetted into an RNase-free EP tube. […] After centrifugation for 4 h and 10 min at 4° C. and 25,400 rpm, high-performance liquid chromatography (HPLC) was conducted to allow relative quantitative analysis of polyribosomes, monoribosomes, and large and small subunits of ribosomes.

Test [4] concerns phosphorylated EIF2S1. Description: Western blotting detection of EIF2A phosphorylation. The format is cell-based. The settings on record: 1 mM of ATCA for 48 h, FIG. 3. How it is done:
Western Blotting method: the sample and molecular weight standard of pre-stained protein were loaded onto an SDS-PAGE gel (10 cm×10 cm) to allow electrophoresis at 100 V for 40 min. After treating for 1 h at 100 V, 230 mA, the protein in SDS-PAGE was transferred to a nitrocellulose membrane. After transfer, the nitrocellulose membrane was washed with 25 mL of TBS for 5 min at room temperature. The nitrocellulose membrane was placed in 25 mL of blocking buffer (TBST, 5% skim milk) and incubated at room temperature for 1 h. The membrane was washed three times with 15 mL TBST, 5 min each time. The membrane and phosphorylated EIF2S1 primary antibody (diluted at 1:1500) were placed in 10 mL of a primary antibody dilution buffer and incubated overnight at 4° C. with gentle shaking at certain intervals. The membrane was washed three times with 15 mL TBST, 5 min each time. A rabbit secondary antibody was prepared with 5% skim milk at a ratio of 1:2000 and incubated at room temperature for 1.5 h. The membrane was washed three times with 15 mL TBST, 5 min each time. The membrane was incubated with 10 mL of LumiGLO® (0.5 mL 20× LumiGLO®, 0.5 mL 20× peroxide, and 9.0 mL purified water) at room temperature for 1 min with gentle agitation at certain intervals. The excess developer on the membrane was drained (no drying), wrapped in plastic film, and then developed with a BIO-RAD developer.

The subject of test [5] is HER2. Description: Western blotting of HER2 expression after ATCA treatment. The format is cell-based. The settings on record: FIG. 4. (In general: A western blot detects proteins with antibodies after separation by electrophoresis.)

For `O=C(O)C1=CC(=C(c2ccc(O)c(C(=O)O)c2)c2ccc(O)c(C(=O)O)c2)C=CC1=O` [ATCA, aurintricarboxylic acid], the “apoptosis of ovarian cancer cells” value in test [1] was “induce apoptosis”. In test [2], the “further significantly down-regulated pathways (KEGG enrichment)” value was “platinum drug-resistance, TGF-beta signaling pathway, signaling pathways regulating pluripotency of stem cells, and FoxO signaling pathway”; the “most significantly down-regulated pathway (KEGG enrichment)” value is recorded as “cell cycle”. In test [3] (24 h after adding the drug), the polysome distribution curve result is on record as “did not change much”. Besides, in test [3] (48 h after adding the drug), the polyribosome fraction result is given as “significantly reduced”. The translation elongation entry in test [3] is “did not affect translation elongation”. The EIF2S1 phosphorylation abundance entry in test [4] is given as “did not affect its phosphorylation abundance”. Moreover, the HER2 expression entry in test [5] is reported as “downregulation”.

Values taken from patent publication US20250222011A1, “DRUG TARGET FOR INHIBITING TUMOR, USE, AND ORAL DRUG” (CHI BIOTECH CO., LTD., priority 2024, published 2025).
